Laboratory results taken from ChEMBL document CHEMBL4229381, “New cytokinin derivatives possess UVA and UVB photoprotective effect on human skin cells and prevent oxidative stress” (Eur J Med Chem, 2018).
Activity calls are given as the source filed them. The calls are words filed in the database; no cut-off is given here.

Legend:
[1] = Phototoxicity in human NHDF cells assessed as cell viability at 31.3 uM preincubated for 60 mins followed by 5 J/cm2 UVA irradiation and measured after 24 hrs by neutral red uptake assay relative to control; type: cell-based; conditions: read-out: Activity
[2] = Phototoxicity in human NHDF cells assessed as cell viability at 62.5 uM preincubated for 60 mins followed by 5 J/cm2 UVA irradiation and measured after 24 hrs by neutral red uptake assay relative to control; type: cell-based; conditions: read-out: Activity
[3] = Cytotoxicity in human HaCaT cells assessed as cell viability at 31.3 uM after 24 hrs by neutral red uptake assay relative to control; type: cell-based; conditions: read-out: Activity
HaCaT [4] = test: Potency index, ratio of compound effect to rosmarinic acid effect for cytoprotection against phototoxicity in human HaCaT cells assessed as increase in cell viability at 3.9 uM preincubated for 60 mins followed by 10 J/cm2 UVA irradiation and measured after 24 hrs by neutral red uptake assay; type: functional
[5] = Phototoxicity in human HaCaT cells assessed as cell viability at 31.3 uM preincubated for 60 mins followed by 7.5 J/cm2 UVA irradiation and measured after 24 hrs by neutral red uptake assay relative to control; type: cell-based; conditions: read-out: Activity
BJ = test: Cytotoxicity in human BJ cells assessed as reduction in cell viability at 50 uM after 24 hrs by resazurin dye-based fluorescence assay relative to control
HaCaT [6] = test: Cytoprotection against phototoxicity in human HaCaT cells assessed as increase in cell viability at 3.9 to 31.3 uM preincubated for 60 mins followed by 10 J/cm2 UVA irradiation and measured after 24 hrs by neutral red uptake assay; type: functional, cell-based
[7] = Cytotoxicity in human HaCaT cells assessed as cell viability at 62.5 uM after 24 hrs by neutral red uptake assay relative to control; type: cell-based; conditions: read-out: Activity
HaCaT [8] = test: Potency index, ratio […] for cytoprotection against phototoxicity in human HaCaT cells assessed as increase in cell viability at 3.9 preincubated for 60 mins followed by 150 mJ/cm2 UVB irradiation and measured after 24 hrs by neutral red uptake assay; type: functional
[9] = Phototoxicity in human NHDF cells assessed as cell viability at 7.8 uM preincubated for 60 mins followed by 5 J/cm2 UVA irradiation and measured after 24 hrs by neutral red uptake assay relative to control; type: cell-based; conditions: read-out: Activity
[10] = Phototoxicity in human NHDF cells assessed as cell viability at 15.6 uM preincubated for 60 mins followed by 5 J/cm2 UVA irradiation and measured after 24 hrs by neutral red uptake assay relative to control; type: cell-based; conditions: read-out: Activity

For c1csc(CNc2ncnc3c2ncn3C2CCCO2)c1 (stereo unspecified), the viability at 24 h, 31.3 µM [1] was 106%, the viability at 24 h, 62.5 µM [2] was 103% and the viability at 24 h, 31.3 µM [3] was 102%. The Ratio (HaCaT [4]) was 3, the viability at 24 h, 31.3 µM [5] was 128% and the Activity (BJ) was less than 10%. The Activity (HaCaT [6]) was “Active”, the viability at 24 h, 62.5 µM [7] was 104% and the Ratio (HaCaT [8]) was greater than 2. The viability at 24 h, 7.8 µM [9] was 102% and the viability at 24 h, 15.6 µM [10] was 101%.
